Literature values in patent US8109064B2, “Methods and systems for contact lens sterilization” (Menicon Signapore Pte Ltd., priority 2006, dated 2012).

Settings: in vivo

Q: For polyhexamine biguanide [PHMB], which corneal staining is on record?
A: implicated in corneal staining
